Test results reported in patent publication US8354106B2, “Antibodies against HMGB1 and fragments thereof” (The Feinstein Institute for Medical Research, priority 2005, dated 2013).
Where no end group is shown, it is not given here. The star is where a group is joined. Biotin = O=C1N[C@H]2[C@H](CS[C@H]2CCCCC(=O)*)N1

Tests used:
[1] = tested on: murine bone marrow-derived dendritic cells (BM-DCs); experiment: Cytokine/chemokine secretion by murine bone marrow-derived dendritic cells (ELISA); format: cell-based, mouse; design: key to TNFα secretion / IL-18 secretion / IL-8 secretion / IL-10 secretion / IL-2 secretion / IL-1β secretion / IL-5 secretion / IL-6 secretion / IL-12 secretion: “+” indicates an increase; “−” indicates no change relative to untreated cells (medium); details: for secretion of IL-12 (p70): FIGS. 2B, 2H; for secretion of IL-1β: FIG. 2A; for secretion of IL-2: FIG. 2C; for secretion of IL-5: FIG. 2E
Protocol: Bone marrow-derived DCs (BM-DCs) were generated using modifications of the original method described by Inaba, et al. (J. Exp. Med. 1 76:1693-1702 (1992)). In brief, bone marrow suspensions were incubated with red cell lysis buffer (PUREGENE™ RBC Lysis Solution, Gentra Systems, Minneapolis, Minn.) to remove red blood cells. After washing in media, lymphocytes and Ia-positive cells were killed with a cocktail of monoclonal antibodies (mAbs) and rabbit complement for 60 min at 37° C. The mAbs that were used were GK1.5 anti-CD4, TIB211 anti-CD8, TIB 120 anti-Ia, and TIB 146 anti B220 (these mAbs were kindly provided by Dr. Ralph Steinman). The cells were subsequently cultured in media containing 5% FCS and 10 ng/ml recombinant mouse GM-CSF (R&D Systems, Minneapolis, Minn.) for 7 days. For some experiments, the cells were further purified at day 7 using CD11c^+-microbeads (Miltenyi Biotech., Auburn, Calif.), according to the manufacturer's instructions.
(§1) Recombinant HMGB1-B box domain (HMGB1-Bx) was expressed in Escherichia coli and purified as described by Li, et al. (Mol. Med. 9:37-45; J. Immunol. Methods 289:211-223 (2004)). Purified HMGB1-Bx contained trace amounts of LPS (19 pg LPS/μg HMGB1-Bx) as measured by the chromogenic Limulus amebocyte lysate assay (BioWhittacker Inc, Walkersville, Md.). All experiments using HMGB1-Bx, as well as the HMGB1 peptides, were performed in the presence of polymyxin B (200 U/ml) to neutralize the amount of contaminating LPS in the HMGB1-Bx and peptide preparations. We have previously shown that the DC stimulatory capacity of HMGB1-Bx requires an intact tertiary structure and is not due to contaminating amounts of LPS, as trypsinization abolished HMGB1-Bx activity (Messmer, et al., J. Immunol. 173: 307-313 (2004); the entire teachings of which are incorporated herein by reference).
(§2) Secreted cytokine/chemokine levels were measured by ELISA (Pierce Boston Technology Center, SearchLight™ Proteome Arrays Multiplex Sample Testing Services, Woburn, Mass.) 48 h after addition of the various peptides. Polymyxin B (200 U/ml) was added to all cultures, except those containing LPS, before the stimuli were added. Immature monocyte-derived human dendritic cells (DCs) and immature bone-marrow derived murine dendritic cells (BM-DCs) were cultured either in the presence of HMGB1 peptides (200 μg/ml), whose sequences map to different regions of the HMGB1 protein (see Table 1), the entire HMGB1 B-box domain (HMGB1-Bx) (50 μg/ml), or LPS (100 ng/ml). Untreated cells (medium) were tested as a control. Each peptide was named according to the corresponding position of its first amino acid within the full-length HMGB1 sequence. All peptides were N-terminally biotinylated except “Hp-106 (non bio)”.

[2] = tested on: human immature monocyte-derived dendritic cells (DCs); experiment: Cytokine/chemokine secretion by human immature monocyte-derived dendritic cells (ELISA); format: cell-based; design: key to TNFα secretion / IL-18 secretion / IL-8 secretion / IL-10 secretion / IL-6 secretion / IL-12 secretion: “+” indicates an increase; “−” indicates no change relative to untreated cells (medium); details: for secretion of IL-6 by DCs / cytokine secretion by human DCs / secretion of IL-12 (p70) / secretion of TNF-α / secretion of IL-18 / secretion of IL-8: human DCs; for secretion of IL-6 by DCs: FIGS. 1A, 1B; for secretion of IL-6 by DCs / IL-6 secretion / IL-8 secretion / IL-10 secretion / IL-12 secretion / IL-18 secretion / TNFα secretion / secretion of IL-12 (p70) / secretion of TNF-α / secretion of IL-18 / secretion of IL-8: peptides 200 μg/ml; for secretion of IL-6 by DCs / secretion of IL-12 (p70) / secretion of TNF-α / secretion of IL-18 / secretion of IL-8: 48 h; for IL-6 secretion / IL-8 secretion / IL-10 secretion / IL-12 secretion / IL-18 secretion / TNFα secretion: HUMAN DC, ELISA 48 h after exposure, relative to untreated cells; for IL-6 secretion / IL-8 secretion / IL-10 secretion / IL-12 secretion / IL-18 secretion / TNFα secretion / secretion of IL-18 / secretion of IL-8: HMGB1-Bx 50 μg/ml; for secretion of IL-12 (p70): FIG. 1C; for secretion of TNF-α: FIG. 1D; for secretion of IL-18: FIG. 1E; for secretion of IL-8: FIG. 1F
Protocol: Peripheral blood mononuclear cells (PBMCs) were isolated from the blood of normal volunteers (Long Island Blood Services, Melville, N.Y.) over a Ficoll-Hypaque (Amersham Biosciences, Uppsala, Sweden) density gradient. CD14^+ monocytes were isolated from PBMCs by positive selection using anti-CD14 beads (Miltenyi Biotech., Auburn, Calif.), following the manufacturer's instructions. To generate DCs, CD14^+ cells were cultured in RPMI 1640 medium supplemented with 2 mM L-glutamine (GIBCO-BRL Life Technologies, Grand Island, N.Y.), 50 μM 2-mercaptoethanol (Sigma, St. Louis, Mo.), 10 mM HEPES (GIBCO-BRL), penicillin (100 U/ml), streptomycin (100 μg/ml) (GIBCO-BRL), and 5% human AB serum (Gemini Bio-Products, Woodland, Calif.). Cultures were maintained for 7 days in 6-well trays (3×10^6 cells/well) supplemented with 1000 U GM-CSF per ml (Immunex, Seattle, Wash.) and 200 U IL-4 per ml (R&D Systems, Minneapolis, Minn.) at days 0, 2, 4 and 6.
as §1, §2

[3] = tested on: allogeneic T cells co-cultured with BM-DCs; experiment: Functional maturation of BM-DCs: allogeneic T cell proliferation in mixed lymphocyte reaction (3H-thymidine); format: cell-based, mouse; details: BM-DCs from C57/BL6 mice exposed 48 h; peptide 200 μg/ml, HMGB1-Bx 50 μg/ml; DC:T cell ratio 1:120, 5 days; FIG. 4A
Protocol: Immature BM-DCs that were generated from C57/BL6 mice (FIG. 4A) or Balb/c mice (FIG. 4B) were incubated for 48 h with either HMGB1-Bx (50 μg/ml), a particular HMGB1 peptide (200 μg/ml), LPS (100 ng/ml) or were left untreated (medium). T cells were isolated by negative selection using the mouse SpinSep antibody cocktail from StemCell Technologies (Vancouver, Calif.), according to the manufacturer's instructions. The cell purity of the isolated T cells was routinely ˜99% pure. In order to assess levels of T cell activation and proliferation, cells were plated at 10^5 cells per well in a round-bottomed 96-well tray at a DC:T cell ratio of 1:120 for 5 days in the medium described above. The microcultures were pulsed with (^3H)-thymidine ([…]) for the final 8 h of culture. Cell cultures were harvested onto glass fiber filters with an automated multiple sample harvester and the amount of isotope incorporation was determined by liquid scintillation β-emission. Responses are reported as mean cpm of thymidine incorporation by triplicate cultures (±SEM).

immature BM-DCs = experiment: Phenotypic maturation of murine BM-DCs: surface maturation markers by FACS; format: cell-based, mouse; details: CD11c+ gated, mean fluorescence intensity, peptide 200 μg/ml, HMGB1-Bx 50 μg/ml
Protocol: In order to determine whether HMGB1-Bx and/or particular HMGB1 peptides could induce phenotypic maturation of murine DCs, immature BM-DCs were exposed to either HMGB1-Bx, a particular HMGB1 peptide, or LPS (FIG. 3). Fluorescence activated cell sorting (FACS) analysis was performed on immature DCs that were cultured in the presence of either HMGB1-Bx (50 μg/ml), an HMGB1 peptide (200 μg/ml), or LPS (100 ng/ml). Untreated DCs (medium) were also tested as a control. DCs were gated on CD11c^+ cells and analyzed for expression of specific maturation markers (e.g., CD86, MHC-II, CD40) by surface membrane immunofluorescence. In particular, 1×10^4 DCs were reacted for at least 20 min at 4° C. in […] of PBS/5% FCS/0.1% sodium azide (staining buffer) with fluorescein isothiocyanate (FITC)-conjugated IgG monoclonal antibodies (mAbs) that are specific for CD86, CD40 or MHC-II (eBioscience). Cells were then washed 4 times with staining buffer, fixed in 10% formaldehyde in PBS (pH 7.2-7.4) and examined by flow cytometry using a FACScan (BD Biosciences). In all experiments, isotype controls were included using a FITC-conjugated irrelevant mAb of the same Ig class. Results are depicted as mean fluorescence intensity (MFI).

[4] = murine BM-DCs, peptides 200 μg/ml, HMGB1-Bx 50 μg/ml, 48 h
[5] = MURINE DC, ELISA 48 h after exposure, peptides 200 μg/ml, HMGB1-Bx 50 μg/ml, relative to untreated cells

Row | Sequence | secretion of IL-12 (p70) [1, 4] | secretion of IL-6 by DCs [2] | IL-1β secretion [1, 5] | IL-2 secretion [1, 5] | IL-5 secretion [1, 5] | IL-6 secretion [1, 5] | IL-10 secretion [1, 5] | IL-12 secretion [1, 5] | cytokine secretion by murine BM-DCs ([1]; murine BM-DCs) | secretion of IL-1β [1, 4] | secretion of IL-2 [1, 4] | secretion of IL-5 [1, 4] | IL-6 secretion [2] | IL-8 secretion [2] | IL-10 secretion [2] | IL-12 secretion [2] | IL-18 secretion [2] | TNFα secretion [2] | cytokine secretion by human DCs [2] | secretion of IL-12 (p70) [2] | other results
1 | CSEYRPKIKGEHPGLSIG [Hp-106 (non bio), Hp-106 peptide that was not biotinylated at its N-terminus] | did not enhance IL-12 secretion | failed to stimulate IL-6 secretion |  |  |  |  |  |  |  |  |  |  |  |  |  |  |  |  |  |  | 
2 | DPNAPKRPPSAFFLFCSE (Biotin-DPNAPKRPPSAFFLFCSE; listed as Homo sapiens) [Hp-91] |  | enhanced IL-6 secretion | + | + | + | − | − | + | induced cytokine secretion by murine BM-DCs | increased production | increased production | increased production | + | − | − | + | + | + | induced cytokine secretion by human DCs | induced secretion | IL-8 secretion [1, 5]: −; IL-18 secretion [1, 5]: −; TNFα secretion [1, 5]: −; secretion of IL-8 ([1]; murine BM-DCs, FIG. 2D, peptides 200 μg/ml, HMGB1-Bx 50 μg/ml, 48 h): not; secretion of IL-18 ([1]; murine BM-DCs, FIG. 2F, peptides 200 μg/ml, HMGB1-Bx 50 μg/ml, 48 h): not; secretion of TNF-α ([1]; murine BM-DCs, FIG. 2G, peptides 200 μg/ml, HMGB1-Bx 50 μg/ml, 48 h): not; secretion of TNF-α [2]: induced secretion; secretion of IL-18 [2]: induced secretion; secretion of IL-8 [2]: did not induce secretion
3 | HPDASVNFSEFSKKCSER (Biotin-HPDASVNFSEFSKKCSER; listed as Homo sapiens) [Hp-31] | enhanced the production | induced secretion | + | + | + | − | − | + | induced cytokine secretion by murine BM-DCs | enhanced the production | enhanced the production | enhanced the production | + | − | − | + | + | + | induced cytokine secretion by human DCs | induced secretion | secretion of IL-6 ([1]; murine BM-DCs): not; secretion of IL-10 ([1]; murine BM-DCs): not; secretion of TNF-α [2]: induced secretion; secretion of IL-18 [2]: induced secretion; secretion of IL-8 [2]: did not induce secretion
4 | SERWKTMSAKEKGKFEDM (Biotin-SERWKTMSAKEKGKFEDM; listed as Homo sapiens) [Hp-46] |  | did not induce IL-6 secretion |  |  |  |  |  |  |  |  |  |  |  |  |  |  |  |  |  |  | proliferation of resting allogeneic T cells (3H thymidine incorporation) [3]: did not show enhanced T cell stimulatory activity
5 | SIGDVAKKLGEMWNNTAA (Biotin-SIGDVAKKLGEMWNNTAA; listed as Homo sapiens) [Hp-121, control peptide] |  |  |  |  |  |  |  |  |  |  |  |  |  |  |  |  |  |  |  |  | CD86 expression on the surface of BM-DCs (immature BM-DCs; FIG. 3A): No altered expression; MHC-II expression on the surface of BM-DCs (immature BM-DCs; FIG. 3B): No altered expression; CD40 expression on the surface of BM-DCs (immature BM-DCs; FIG. 3C): No altered expression; proliferation of resting allogeneic T cells (3H thymidine incorporation) [3]: did not show enhanced T cell stimulatory activity
